The record followed here is ChEMBL document CHEMBL3132769, “Fragment growing to retain or alter the selectivity of anchored kinase hinge-binding fragments” (Medchemcomm, 2014).

For orientation: inhibition means how much of the control response was suppressed.

Assay [1] concerns the target T1, Serine/threonine-protein kinase DCLK2 (Homo sapiens) (UniProt Q8N568).
T1 sequence (whole entry): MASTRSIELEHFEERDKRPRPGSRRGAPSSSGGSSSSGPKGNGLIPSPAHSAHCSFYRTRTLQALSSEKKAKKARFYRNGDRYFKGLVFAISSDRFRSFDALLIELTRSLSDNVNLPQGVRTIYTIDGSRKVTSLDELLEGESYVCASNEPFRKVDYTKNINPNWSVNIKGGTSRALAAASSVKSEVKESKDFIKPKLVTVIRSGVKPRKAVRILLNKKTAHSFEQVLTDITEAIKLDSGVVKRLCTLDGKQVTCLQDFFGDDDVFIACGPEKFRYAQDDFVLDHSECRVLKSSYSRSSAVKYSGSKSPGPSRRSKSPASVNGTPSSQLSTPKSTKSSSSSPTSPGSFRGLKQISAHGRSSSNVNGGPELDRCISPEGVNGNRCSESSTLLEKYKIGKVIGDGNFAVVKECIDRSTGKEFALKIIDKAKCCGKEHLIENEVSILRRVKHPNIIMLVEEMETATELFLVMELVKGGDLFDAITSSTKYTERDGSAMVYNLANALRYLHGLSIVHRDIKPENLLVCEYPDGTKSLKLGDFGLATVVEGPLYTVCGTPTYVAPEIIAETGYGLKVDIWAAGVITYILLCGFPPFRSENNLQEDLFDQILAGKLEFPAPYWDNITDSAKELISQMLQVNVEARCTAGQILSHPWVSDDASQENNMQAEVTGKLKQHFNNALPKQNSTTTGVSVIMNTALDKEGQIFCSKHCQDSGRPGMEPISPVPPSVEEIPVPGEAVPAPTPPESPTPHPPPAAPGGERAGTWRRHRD
Briefly: Inhibition of human full length DCAMKL2 expressed in baculovirus assessed as substrate phosphorylation using fluorescence-labelled peptides as substrate at 0.2 uM after 90 mins by microfluidic peptide phosphorylation assay.

For assay [2], the target named is T2, Serine/threonine-protein kinase Sgk3 (Homo sapiens) (UniProt Q96BR1).
T2 sequence (whole entry): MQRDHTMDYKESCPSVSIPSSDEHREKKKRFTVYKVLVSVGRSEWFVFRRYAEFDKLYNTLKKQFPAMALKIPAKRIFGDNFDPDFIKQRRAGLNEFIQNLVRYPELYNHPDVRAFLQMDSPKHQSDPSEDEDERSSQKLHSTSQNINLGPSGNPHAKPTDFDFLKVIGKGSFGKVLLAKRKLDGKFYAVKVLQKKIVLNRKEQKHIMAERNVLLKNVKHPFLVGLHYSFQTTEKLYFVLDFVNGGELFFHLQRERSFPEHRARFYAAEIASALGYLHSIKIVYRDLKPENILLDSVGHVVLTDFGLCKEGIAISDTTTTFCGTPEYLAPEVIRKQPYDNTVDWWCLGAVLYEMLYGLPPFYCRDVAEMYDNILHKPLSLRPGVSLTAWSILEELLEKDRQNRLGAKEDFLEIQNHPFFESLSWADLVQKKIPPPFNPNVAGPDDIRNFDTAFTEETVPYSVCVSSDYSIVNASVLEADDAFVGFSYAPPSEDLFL
In words: Inhibition of human full length SGK3 expressed in baculovirus assessed as substrate phosphorylation using fluorescence-labelled peptides as substrate at 9 uM after 90 mins by microfluidic peptide phosphorylation assay.

Assay [3] addresses T3, Protein kinase C epsilon type (Homo sapiens) (UniProt Q02156).
T3 sequence (whole entry): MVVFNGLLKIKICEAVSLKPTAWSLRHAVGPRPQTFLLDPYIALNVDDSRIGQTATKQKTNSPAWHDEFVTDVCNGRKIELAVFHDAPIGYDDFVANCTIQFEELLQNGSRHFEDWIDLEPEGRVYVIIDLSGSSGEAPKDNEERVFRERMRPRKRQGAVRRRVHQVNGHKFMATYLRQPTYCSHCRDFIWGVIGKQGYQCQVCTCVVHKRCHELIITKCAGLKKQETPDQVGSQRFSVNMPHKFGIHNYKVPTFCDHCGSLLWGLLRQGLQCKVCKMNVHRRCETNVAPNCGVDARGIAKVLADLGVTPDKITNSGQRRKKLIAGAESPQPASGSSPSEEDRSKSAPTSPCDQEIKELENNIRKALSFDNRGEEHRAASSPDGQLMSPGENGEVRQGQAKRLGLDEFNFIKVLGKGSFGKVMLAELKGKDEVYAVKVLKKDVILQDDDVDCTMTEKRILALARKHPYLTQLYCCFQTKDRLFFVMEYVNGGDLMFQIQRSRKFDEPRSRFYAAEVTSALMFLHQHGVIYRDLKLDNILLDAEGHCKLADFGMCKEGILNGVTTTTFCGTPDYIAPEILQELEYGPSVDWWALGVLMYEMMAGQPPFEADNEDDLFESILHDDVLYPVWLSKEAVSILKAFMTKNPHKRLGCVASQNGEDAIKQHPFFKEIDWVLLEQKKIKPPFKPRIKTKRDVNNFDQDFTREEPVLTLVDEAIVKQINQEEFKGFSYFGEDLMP
Briefly: Inhibition of human truncated PKC epsilon expressed in baculovirus assessed as substrate phosphorylation using fluorescence-labelled peptides as substrate at 0.06 uM after 90 mins by microfluidic peptide phosphorylation assay.

Assay [4] has as its target T4, Testis-specific serine/threonine-protein kinase 1 (Homo sapiens) (UniProt Q9BXA7).
T4 sequence (whole entry): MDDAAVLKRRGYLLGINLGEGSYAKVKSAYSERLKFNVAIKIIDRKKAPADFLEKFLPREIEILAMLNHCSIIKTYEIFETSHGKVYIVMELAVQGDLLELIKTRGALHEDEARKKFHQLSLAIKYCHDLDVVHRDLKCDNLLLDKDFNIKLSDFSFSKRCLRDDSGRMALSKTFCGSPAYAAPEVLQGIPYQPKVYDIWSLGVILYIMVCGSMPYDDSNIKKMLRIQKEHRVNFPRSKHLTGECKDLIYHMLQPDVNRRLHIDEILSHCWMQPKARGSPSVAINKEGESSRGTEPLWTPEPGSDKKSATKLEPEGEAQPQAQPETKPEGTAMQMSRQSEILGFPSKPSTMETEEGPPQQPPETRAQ
Briefly: Inhibition of human full length TSSK1 expressed in baculovirus assessed as substrate phosphorylation using fluorescence-labelled peptides as substrate at 2 uM after 90 mins by microfluidic peptide phosphorylation assay.

For assay [5], the target named is Insulin receptor (Homo sapiens) (UniProt P06213). Briefly: Inhibition of human INSR catalytic domain expressed in baculovirus assessed as substrate phosphorylation using fluorescence-labelled peptides as substrate at 70 uM after 90 mins by microfluidic peptide phosphorylation assay.

In the case of `Clc1ccc(C2(c3ccc(-c4ncnc5[nH]cnc45)cc3)CCNCC2)cc1`, the inhibition in assay [1] worked out at 10%.

On to `NCC1CN(c2ncnc3[nH]c4cnccc4c23)CCO1` (stereo not given), for which, in assay [2], the inhibition came to 44%.

With `NC1(Cc2ccc(Cl)cc2)CCN(c2ncnc3[nH]ccc23)CC1`, the inhibition in assay [3] is 1.5%.

For the compound `NC1CCN(c2ncnc3[nH]ccc23)CC1`, the inhibition in assay [4] is 0%.

In the case of `CNCc1ccc(-c2ncnc3[nH]cnc23)cc1`, the inhibition in assay [5] came out at 0%.
